Reference: US20180298317A1, “DEVICES FOR SIMULATING A FUNCTION OF A TISSUE AND METHODS OF USE AND MANUFACTURING THEREOF” (PRESIDENT AND FELLOWS OF HARVARD COLLEGE, priority 2015, published 2018)

Columns and labels:
[1] = test system: human brain microvascular endothelial cells with pericytes or astrocytes; test: Inflammatory stimulation and cytokine release in static Transwell cultures; format: cell-based
Procedure: 24-well Transwell inserts (Corning), about 0.4 μm, polyethylene terephthalate membranes, were coated with rat-tail collagen I (Corning) at about 100 μg/ml in phosphate-buffered saline for about 2 hours. The inserts were inverted and pericytes or astrocytes were seeded at about 6.25×10^3 cells per insert. After about 2 hours of incubation, the inserts were placed in 24-well plates and seeded with hBMVEC at about 2.5×10^4 cells per insert. Transendothelial electrical resistance (TEER) values were measured after about 120 hrs of culture using an EndOhm (WPI) and chopstick electrodes. Paracellular diffusion was assayed about 5 minutes after adding dextran 3 kDa-Alexa488 (about 100 μg/ml) to the apical chamber and using a Synergy Neo platereader (BioTek (Winooski, Vt., USA)).
Microfluidic chips and Transwell inserts were cultured for about 72 hours, followed by incubation in CSC complete medium with fetal bovine serum reduced from about 10% to about 2% for about 18 hours. Microfluidics chips were stimulated with TNF-α (Sigma-Aldrich) at about 50 ng/ml in CSC complete medium with about 2% serum for about 6 hrs (about 5 min flow at about 120 μl/min corresponding to about 1 dyne/cm^2, followed by static conditions). Transwells were stimulated on the apical and the basal side. […]
(§1) To explore whether we can use the synthetic nature of the 3D BBB chip to analyze the contributions of individual brain vasculature-associated cells to neuroinflammation, the engineered microvessels were cultured in the presence or absence of TNF-α (about 50 ng/ml) that was flowed through the lumen for about 6 hours. Cytokine release profiles produced in the 3D BBB chips containing endothelium with or without either pericytes or astrocytes were then analyzed, and the results were compared to those obtained with similar mono-cultures, as well as co-cultures maintained in commercial Transwell culture plates.

[2] = test system: human brain microvascular endothelial cells with pericytes or astrocytes; test: Inflammatory stimulation and cytokine release in 3D BBB chip; format: cell-based
Procedure: Microfluidic chips and Transwell inserts were cultured for about 72 hours, followed by incubation in CSC complete medium with fetal bovine serum reduced from about 10% to about 2% for about 18 hours. Microfluidics chips were stimulated with TNF-α (Sigma-Aldrich) at about 50 ng/ml in CSC complete medium with about 2% serum for about 6 hrs (about 5 min flow at about 120 μl/min corresponding to about 1 dyne/cm^2, followed by static conditions). Transwells were stimulated on the apical and the basal side. Following thorough rinsing of microfluidic chips under continuous flow (about 120 μl/min, about 1 dyne/cm^2) and batch washes of Transwell plates with CSC complete medium with about 2% serum, conditioned medium from the chips was collected continuously for about 1 hour at about 100 μl/hr (about 0.01 dyne/cm^2) using syringe-driven flow; medium from the apical compartment was collected from Transwells after about 1 hour. The cytokine release profile was assayed with the Bio-Plex Pro Human Cytokine 17-plex Assay (Bio-Rad) in a Bioplex 3D system (Bio-Rad), and the resulting cytokine release profiles were normalized to cell culture area in 3D BBB chips versus Transwells.
as §1

In the case of TNF-α, the IL-6 induction ([1]; Transwell co-cultures, about 50 ng/ml, about 6 hours) was “barely detectable”, the “IL-8 production in response to stimulation” value ([1]; Transwell cultures, astrocytes or pericytes in combination with endothelial cells) was “enhanced IL-8 production” and the “induction of G-CSF secretion” value ([1]; endothelial cells and astrocytes co-cultured under static conditions in Transwells, about 50 ng/ml, about 6 hours) was “could not be detected”. For the same substance, the IL-6 induction ([2]; 3D BBB chip co-cultures of astrocytes-endothelial cells and pericytes-endothelial cells, about 50 ng/ml, about 6 hours) was “strong IL-6 induction”, the “IL-8 production in response to stimulation” value ([2]; 3D BBB chip, astrocytes or pericytes in combination with endothelial cells) was “enhanced IL-8 production” and the “induction of G-CSF secretion” value ([2]; 3D BBB chip, pericytes with endothelium, about 50 ng/ml, about 6 hours) was “generally not sensitive to induction”. The “increase in G-CSF secretion in response to TNF-α stimulation” value ([2]; 3D BBB chips containing astrocytes and endothelial cells, about 50 ng/ml, about 6 hours) was ≤ 10 fold.
